Measured values: patent US8119563B2, “N-substituted azacycles” (FMC Corporation, priority 2003, dated 2012)

Test system: tobacco budworm (Heliothis virescens [Fabricius])
Test: surface-treated diet test, insecticidal activity against tobacco budworm
Type: in vivo
Settings: 0.25 millimoles of candidate insecticide on the surface of the diet, second instar larvae, five-day exposure; for Percent Mortality: compared to total number of insects infested; for Percent Growth Inhibition: inhibition of insect weight relative to untreated controls
Method: Candidate insecticides were evaluated for activity against the tobacco budworm (Heliothis virescens [Fabricius]) in a surface-treated diet test.
In this test one mL of molten (65-70° C.) wheat germ-based artificial diet was pipetted into each well of a four by six (24 well) multi-well plate (ID# 430345-15.5 mm dia.×17.6 mm deep; Corning Costar Corp., One Alewife Center, Cambridge, Mass. 02140). The diet was allowed to cool to ambient temperature before treatment with candidate insecticide.
For a determination of insecticidal activity, solutions of the candidate insecticides were prepared for testing using a Packard 204DT Multiprobe® Robotic System (Packard Instrument Company, 800 Research Parkway, Meriden, Conn. 06450), in which the robot first diluted a standard 50 millimolar DMSO solution of candidate insecticide with a 1:1 water/acetone solution (V/V) in a ratio of 1:7 stock solution to water/acetone. The robot subsequently pipetted 40 microliters of the so-prepared solution onto the surface of the diet in each of three wells in the 24 multi-well plate. The process was repeated with solutions of seven other candidate insecticides. Once treated, the contents of the multi-well plate were allowed to dry, leaving 0.25 millimoles of candidate insecticide on the surface of the diet, or a concentration of 0.25 millimolar. Appropriate untreated controls containing only DMSO on the diet surface were also included in this test.
For evaluations of the insecticidal activity of a candidate insecticide at varying rates of application, the test was established as described above using sub-multiples of the standard 50 millimolar DMSO solution of candidate insecticide. For example, the standard 50 millimolar solution was diluted by the robot with DMSO to give 5, 0.5, 0.05, 0.005, 0.0005 millimolar, or more dilute solutions of the candidate insecticide. In these evaluations there were six replicates of each rate of application placed on the surface of the diet in the 24 multi-well plate, for a total of four rates of application of candidate insecticide in each plate.
In each well of the test plate was placed one second instar tobacco budworm larvea, each weighing approximately five milligrams. After the larvae were placed in each well, the plate was sealed with clear polyfilm adhesive tape. The tape over each well was perforated to ensure an adequate air supply. The plates were then held in a growth chamber at 25° C. and 60% relative humidity for five days (light 14 hours/day).
After the five-day exposure period insecticidal activity for each rate of application of candidate insecticide was assessed as percent inhibition of insect weight relative to the weight of insects from untreated controls, and percent mortality when compared to the total number of insects infested.
The test compounds of formula I are identified by numbers that correspond to those in Table 1.

SMILES | Percent Mortality | Percent Growth Inhibition
CCn1nnc(-c2ccc(C[N+]3([O-])CCC(O)(C(O)(c4ccc(OC(F)(F)F)cc4)c4ccc(OC(F)(F)F)cc4)CC3)cc2)n1 (stereo not drawn) [Compound 426] | 100% | 100%
CCOCON=Cc1ccc(C[N+]2([O-])CCC(O)(C(c3ccc(OC(F)(F)F)cc3)c3ccc(OC(F)(F)F)cc3)CC2)cc1 (stereo not drawn) [Compound 337] | 100% | 100%
OC1(C(c2ccc(OC(F)(F)F)cc2)c2ccc(OC(F)(F)F)cc2)CCN(Cc2ccc(Oc3ccc(Cl)cc3)cc2)CC1 [Compound 290] | 100% | 100%
CC(C)OC(=O)Nc1ccc(C[N+]2([O-])CCC(O)(C(c3ccc(OC(F)(F)F)cc3)c3ccc(OC(F)(F)F)cc3)CC2)cc1 (stereo not drawn) [Compound 119] | 100% | 100%
OC1(C(c2ccc(C(F)(F)F)cc2)c2ccc(F)c(F)c2)CCN(Cc2ccc(Oc3ncccn3)cc2)CC1 (stereo not drawn) [Compound 17] | 83% | 100%
CCOC(=O)COc1ccc(CN2CCC(O)(C(c3ccc(OC(F)(F)F)cc3)c3ccc(OC(F)(F)F)cc3)CC2)cc1 [Compound 279] | 83% | 100%
[N-]=[N+]=NCC1(C(c2ccc(C(F)(F)F)cc2)c2ccc(C(F)(F)F)cc2)CC[N+]([O-])(Cc2ccc(OCC3CC3)cc2)CC1 (stereo not drawn) [Compound 467] | 50% | 100%
OC1(C(c2ccc(OC(F)(F)F)cc2)c2ccc(Cl)cc2Cl)CCN(Cc2ccc(Oc3ccccn3)cc2)CC1 (stereo not drawn) [Compound 433] | 100% | 100%
OC1(C(c2ccc(OC(F)(F)F)cc2)c2ccc(C(F)(F)F)cc2)CCN(Cc2ccc(Oc3ncccn3)cc2)CC1 (stereo not drawn) [Compound 2] | 100% | 100%
[O-][N+]1(Cc2ccc(Oc3ccccn3)cc2)CCC(O)(C(c2ccc(F)cc2)c2ccc(OC(F)(F)F)cc2)CC1 (stereo not drawn) [Compound 346] | 100% | 100%
O=C([O-])CO.OC1(C(c2ccc(OC(F)(F)F)cc2)c2ccc(OC(F)(F)F)cc2)CC[N+](O)(Cc2ccc(Oc3ccccn3)cc2)CC1 (stereo not drawn) [Compound 510] | 100% | 100%
CCCCCCCCCCCCc1ccc(S(=O)(=O)[O-])cc1.OC1(C(c2ccc(OC(F)(F)F)cc2)c2ccc(OC(F)(F)F)cc2)CC[N+](O)(Cc2ccc(Oc3ccccn3)cc2)CC1 (stereo not drawn) [Compound 515] | 100% | 100%
FC(F)(F)c1ccc(C(c2ccc(C(F)(F)F)cc2)C2(F)CCN(Cc3ccc(Oc4ncccn4)cc3)CC2)cc1 [Compound 194] | 100% | 100%
O=S(=O)([O-])C(F)(F)C(F)(F)C(F)(F)C(F)(F)C(F)(F)C(F)(F)C(F)(F)C(F)(F)F.OC1(C(c2ccc(OC(F)(F)F)cc2)c2ccc(OC(F)(F)F)cc2)CC[N+](O)(Cc2ccc(Oc3ccccn3)cc2)CC1 (stereo not drawn) [Compound 496] | 100% | 100%
OC1(C(c2ccc(OC(F)(F)F)cc2)c2ccc(OC(F)(F)F)cc2)CCN(Cc2ccc(C3OCCCO3)cc2)CC1 [Compound 292] | 100% | 100%
CCON=Cc1ccc(C[N+]2([O-])CCC(O)(C(c3ccc(OC(F)(F)F)cc3)c3ccc(Cl)cc3Cl)CC2)cc1 (stereo not drawn) [Compound 453] | 100% | 100%
CC(=O)NCC1(C(c2ccc(C(F)(F)F)cc2)c2ccc(C(F)(F)F)cc2)CC[N+]([O-])(Cc2ccc(Oc3ncccn3)cc2)CC1 (stereo not drawn) [Compound 466] | 17% | 100%
OC1(C(c2ccccc2F)c2ccccc2F)CCN(Cc2ccc(Oc3ncccn3)cc2)CC1 [Compound 434] | 0% | 56%
CC(C)Oc1ccc(C[N+]2([O-])CCC(O)(C(c3ccc(C(F)(F)F)cc3)c3ccc(C(F)(F)F)cc3)CC2)cc1 (stereo not drawn) [Compound 380] | 100% | 100%
OC1(C(c2ccc(C(F)(F)F)cc2)c2ccc(Cl)c(Cl)c2)CCN(Cc2ccc(Oc3ncccn3)cc2)CC1 (stereo not drawn) [Compound 9] | 100% | 100%

SMILES | Percent Mortality | Percent Growth Inhibition
N#CCON=Cc1ccc(CN2CCC(O)(C(c3ccc(OC(F)(F)F)cc3)c3ccc(OC(F)(F)F)cc3)CC2)cc1 [Compound 275] | 100% | 100%
CC1(C)COC(c2ccc(C[N+]3([O-])CCC(O)(C(c4ccc(OC(F)(F)F)cc4)c4ccc(OC(F)(F)F)cc4)CC3)cc2)OC1 (stereo not drawn) [Compound 358] | 100% | 100%
COc1ccc(C(c2ccc(OC(F)(F)F)cc2)C2(O)CCN(Cc3ccc(Oc4ccccn4)cc3)CC2)cc1 (stereo not drawn) [Compound 260] | 100% | 100%
OC1(C(c2ccc(C(F)(F)F)cc2)c2ccc(C(F)(F)F)cc2)CCN(Cc2ccc(Oc3ccccn3)cc2)CC1 [Compound 22] | 100% | 100%
CC(C)(C)NC(=O)Oc1ccc(CN2CCC(O)(C(c3ccc(OC(F)(F)F)cc3)c3ccc(OC(F)(F)F)cc3)CC2)cc1 [Compound 311] | 100% | 100%
O=S(=O)([O-])CCCO.OC1(C(c2ccc(OC(F)(F)F)cc2)c2ccc(OC(F)(F)F)cc2)CC[N+](O)(Cc2ccc(Oc3ccccn3)cc2)CC1 (stereo not drawn) [Compound 500] | 100% | 100%
OC1(C(c2ccc(OC(F)(F)F)cc2)c2ccc(OC(F)(F)F)cc2)CCN(Cc2ccc(C3OCCO3)cc2)CC1 [Compound 263] | 100% | 100%
[O-][N+]1(Cc2ccc(Oc3ccccn3)cc2)CCC(O)(C(O)(c2ccc(OC(F)(F)F)cc2)c2ccc(OC(F)(F)F)cc2)CC1 (stereo not drawn) [Compound 421] | 100% | 100%
O=Cc1ccc(C(c2ccc(OC(F)(F)F)cc2)C2(O)CCN(Cc3ccc(Oc4ccccn4)cc3)CC2)cc1 (stereo not drawn) [Compound 256] | 17% | 100%
[O-][N+]1(Cc2ccc(Oc3ccccn3)cc2)CCC2(CC1)OC2(c1ccc(OC(F)(F)F)cc1)c1ccc(OC(F)(F)F)cc1 (stereo not drawn) [Compound 431] | 100% | 100%
CCON=Cc1ccc(CN2CCC(O)(C(c3ccc(OC(F)(F)F)cc3)c3ccc(OC(F)(F)F)cc3)CC2)cc1 [Compound 28] | 100% | 100%
[O-][N+]1(Cc2ccc(Oc3ncccn3)cc2)CCC(O)(C(c2ccc(Cl)c(F)c2)c2ccc(Cl)c(F)c2)CC1 (stereo not drawn) [Compound 115] | 50% | 100%
OC(COc1ccc(Cl)cc1)CN1CCC(O)(C(c2ccc(OC(F)(F)F)cc2)c2ccc(OC(F)(F)F)cc2)CC1 (stereo not drawn) [Compound 470] | 17% | 89%
OC1(C(c2ccc(C(F)(F)F)cc2)c2cccc(Cl)c2)CCN(Cc2ccc(Oc3ncccn3)cc2)CC1 (stereo not drawn) [Compound 14] | 100% | 100%
[O-][N+]1(Cc2ccc(OCc3ccccc3)cc2)CCC(O)(C(c2ccc(OC(F)(F)F)cc2)c2ccc(OC(F)(F)F)cc2)CC1 (stereo not drawn) [Compound 381] | 100% | 100%
Cc1ccc(Oc2ccc(CN3CCC(O)(C(c4ccc(OC(F)(F)F)cc4)c4ccc(OC(F)(F)F)cc4)CC3)cc2)nn1 [Compound 255] | 100% | 100%
OC1(C(c2ccc(OC(F)(F)F)cc2)c2cccc(Cl)c2)CCN(Cc2ccc(Oc3ccccn3)cc2)CC1 (stereo not drawn) [Compound 439] | 100% | 100%
CCS(=O)(=O)[O-].OC1(C(c2ccc(OC(F)(F)F)cc2)c2ccc(OC(F)(F)F)cc2)CC[N+](O)(Cc2ccc(Oc3ccccn3)cc2)CC1 (stereo not drawn) [Compound 506] | 100% | 100%
O=C(Nc1ccc(C[N+]2([O-])CCC(O)(C(c3ccc(OC(F)(F)F)cc3)c3ccc(OC(F)(F)F)cc3)CC2)cc1)OCC1CC1 (stereo not drawn) [Compound 404] | 100% | 100%
